Assay results: PMC12974487, “Inhibition of FicD-mediated AMPylation and deAMPylation by isoprenoid diphosphates” (Proceedings of the National Academy of Sciences of the …, 2026)
Residue numbers refer to the chain shown, from its start.

What was measured:
Assay type in all cases: binding
[1] = target: T1, FicD^H363A (Homo sapiens, UniProt Q9BVA6, H363A); assay: MIDAS metabolite screen, FicD^H363A; conditions: cutoff Q < 0.05 and |Log2 corrected fold change| > 2, metabolites 5 µM
T1 construct: soluble ER luminal domain (residues 105 to 458) of wild-type human FicD and three mutants; 6xHis-Sumo (N, cleaved yes); made in house; host or cells: Rosetta(DE3) E. coli
T1 sequence (Q9BVA6 105-458 H363A): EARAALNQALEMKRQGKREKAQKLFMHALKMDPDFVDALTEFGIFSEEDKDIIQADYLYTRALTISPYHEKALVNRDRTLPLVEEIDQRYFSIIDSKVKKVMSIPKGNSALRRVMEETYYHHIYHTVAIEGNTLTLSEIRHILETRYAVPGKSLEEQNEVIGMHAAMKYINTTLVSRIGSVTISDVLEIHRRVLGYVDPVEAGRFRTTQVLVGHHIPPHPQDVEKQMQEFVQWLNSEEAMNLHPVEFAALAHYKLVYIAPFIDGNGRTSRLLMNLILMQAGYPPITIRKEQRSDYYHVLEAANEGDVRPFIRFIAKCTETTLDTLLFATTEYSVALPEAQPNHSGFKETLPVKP
Text: (§1) To identify small-molecule metabolite interactions with FicD, we applied an unbiased high-throughput screening approach known as MIDAS ([44]). Given the high concentrations of protein required for MIDAS screening, we purified the soluble ER luminal domain (residues 105 to 458) of wild-type human FicD and three mutants FicD^E234G, FicD^L258D, and FicD^H363A for screening (Fig. 1A). These mutants were selected based on their well-established biochemical features ([23], [24], [31]). All three are predicted to enhance detection of protein–metabolite interactions (PMIs) relative to FicD^WT through increased affinity for nucleotide substrates (FicD^E234G), improved solubility (FicD^L258D), and loss of catalytic turnover (FicD^H363A) (Fig. 1A). To decrease the potential for nonspecific small-molecule binding, we ensured the purity of our FicD proteins (SI Appendix, Fig. S1 A and B). As reported by other investigators ([24], [31]), we observe an increase in elution volume of the FicD^L258D mutant, consistent with its monomerization (SI Appendix, Fig. S1C).
(§2) Out of the 602 naturally occurring human metabolites in the MIDAS library, we applied a significance cutoff (q value < 0.05) to identify 12 PMIs with a Log2 (corrected fold change) of >2 and two PMIs with a Log2 (corrected fold change) <-2 in the FicD^WT screen (Fig. 1B and SI Appendix, Table S2). Hits were additionally triaged based on detection of multiple adducts of the metabolite in a single dataset (FPP and […] in Fig. 1B) and identification of the same metabolites across three or more of the FicD construct screens (Fig. 1C). Three chemical classes passed this initial triage: adenosine nucleotides, isoprenoid diphosphates, and thyroid hormone intermediates (Fig. 1 B and C and SI Appendix, Tables S2–S5).
(§3) 22°C. Induced cultures were then harvested by centrifugation at 8000G for 15 minutes at 4°C and […]
(§4) Bacterial pellets were resuspended in 30-50mL of 50mM Tris pH 7.4/150mM NaCl/10% glycerol with one Roche cOmplete EDTA-Free Protease inhibitor cocktail tablet (cat no. COEDTAF-RO).
(§5) Triton-X100 to a final concentration of 0.2%, Chicken-egg lysozyme to a final concentration of 0.4ug/mL, and 2-5uL of Millipore Benzonase Nuclease (cat no. 70664) were added to bacterial suspension prior to sonication at 40-50% amplitude for 1-3 minutes in pulses of 5 seconds on and 30 seconds off on ice with a Sonics VCX 750 Ultrasonicator. Bacterial lysate was then clarified by centrifugation at 30,000 x g for 30 minutes at 4°C.
Clarified lysate was rotated with Qiagen NiNTA agarose beads (cat no. 30210) for 1-2 hours at 4°C. […]

[2] = target: T2, BiP (Homo sapiens, UniProt P11021, T229A); assay: DSF specificity control with BiP; conditions: same increasing metabolite concentrations
T2 construct: BiPT229A (residues 27-654) was expressed as an 6xHis-Thrombin-T7 n-terminal fusion; 6xHis-Thrombin-T7 (N); made in house; host or cells: Rosetta(DE3) E. coli

[3] = target: T3, FicD^L258D (Homo sapiens, UniProt Q9BVA6, L258D); assay: MIDAS metabolite screen, FicD^L258D; conditions: cutoff Q < 0.05 and |Log2 corrected fold change| > 2, metabolites 5 µM
T3 construct: soluble ER luminal domain (residues 105 to 458) of wild-type human FicD and three mutants; 6xHis-Sumo (N, cleaved yes); made in house; host or cells: Rosetta(DE3) E. coli
T3 sequence (Q9BVA6 105-458 L258D): T1 sequence (Q9BVA6 105-458 H363A) with L154D, A259H
Text: as §1, §2, §3, §4, §5
Clarified lysate was rotated with Qiagen NiNTA agarose beads (cat no. 30210) for 1-2 hours at 4°C. The beads were then transferred to a 15mL conical vial, resuspended in 10-15mL wash buffer (50mM Tris pH 7.4/150mM NaCl/10% glycerol/0.2% Triton-X 100/10mM imidazole), and spun down at 1000G for 1 minute at 4°C, after which the supernatant was aspirated from the beads. This washing step was repeated 2-4 times to rinse bacterial lysate from the beads prior to on-column washing. The beads were then transferred to BioRad Econopac 20mL bed volume column (cat no.
7321010) and washed with 10-15mL of wash buffer (repeated at least three times), 10mL of ATP wash (50mM Tris pH 7.4/300mM KCl/10mM MgCl2/500uM ATP, repeated once), and finally with 10-15mL wash buffer without Triton-X 100 (repeated at least three times). Protein was eluted in 500μL-1mL elution buffer (50mM Tris pH 7.5/150mM NaCl/10% glycerol/0.5% CHAPS). […]

T2 sequence (P11021 27-654 T229A): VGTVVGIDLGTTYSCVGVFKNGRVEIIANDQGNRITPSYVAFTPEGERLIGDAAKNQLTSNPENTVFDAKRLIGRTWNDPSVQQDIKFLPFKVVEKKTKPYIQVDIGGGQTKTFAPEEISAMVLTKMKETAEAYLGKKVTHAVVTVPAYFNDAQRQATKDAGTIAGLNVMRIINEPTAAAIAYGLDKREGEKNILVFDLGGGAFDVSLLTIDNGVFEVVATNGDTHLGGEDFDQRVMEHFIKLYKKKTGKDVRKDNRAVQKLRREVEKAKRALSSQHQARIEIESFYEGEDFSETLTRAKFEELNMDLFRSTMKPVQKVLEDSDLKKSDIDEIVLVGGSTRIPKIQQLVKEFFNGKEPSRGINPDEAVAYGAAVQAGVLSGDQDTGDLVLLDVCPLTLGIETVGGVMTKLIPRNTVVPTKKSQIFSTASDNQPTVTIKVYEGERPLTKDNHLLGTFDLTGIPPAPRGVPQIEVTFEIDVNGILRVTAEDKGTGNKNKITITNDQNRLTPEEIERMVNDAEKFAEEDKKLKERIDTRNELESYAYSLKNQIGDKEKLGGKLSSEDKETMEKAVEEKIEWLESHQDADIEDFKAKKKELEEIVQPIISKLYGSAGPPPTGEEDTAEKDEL

Row | Compound | MIDAS protein-metabolite interaction (enrichment/depletion) [1] | change in melt curves or Tm of BiP [2] | MIDAS protein-metabolite interaction (enrichment/depletion) [3]
1 | Nc1ncnc2c1ncn2[C@@H]1O[C@H](COP(=O)(O)OP(=O)(O)O)[C@@H](O)[C@H]1O [ADP] | significantly enriched |  | 
2 | CC(C)=CCC/C(C)=C/CC/C(C)=C/COP(=O)(O)OP(=O)(O)O [FPP, farnesyl-pyrophosphate] | significantly enriched | neither GPP nor FPP elicited a change | significantly enriched
3 | CC(C)=CCC/C(C)=C/COP(=O)(O)OP(=O)(O)O [GPP, geranyl-pyrophosphate] | significantly enriched | neither GPP nor FPP elicited a change | significantly enriched
